Experimental data as given in ChEMBL document CHEMBL1148190, “Xestokerols A, B, and C, New C 29 Steroids with a Cyclopropane Ring from the Okinawan Marine Sponge Xestospongia sp” (J Nat Prod, 1993).
≈ marks a conversion by molar mass, not a printed value. Calls of active or inactive are those of the source. The calls are words filed in the database; no cut-off is given here.

Experiments:
Micrococcus luteus [1] = assay: Antibacterial activity against Sarcina lutea; assay type: functional
KB = assay: Cytotoxicity against human KB cells; assay type: functional, cell-based
L1210 = assay: Cytotoxicity against mouse L1210 cells; assay type: functional, cell-based
Bacillus subtilis [2] = assay: Antibacterial activity against Bacillus subtilis; assay type: functional
Staphylococcus aureus [3] = assay: Antibacterial activity against Staphylococcus aureus; assay type: functional
Bacillus subtilis [4] = assay: Antibacterial activity against Bacillus subtilis at 260 ug/ml; assay type: functional, organism-based
Micrococcus luteus [5] = assay: Antibacterial activity against Sarcina lutea at 260 ug/ml; assay type: functional, organism-based
Staphylococcus aureus [6] = assay: Antibacterial activity against Staphylococcus aureus at 260 ug/ml; assay type: functional, organism-based

| Structure (SMILES) | MIC (Micrococcus luteus [1]) [µg/mL] | IC50 (KB) [µg/mL] | IC50 (L1210) [µg/mL] | MIC (Bacillus subtilis [2]) [µg/mL] | MIC (Staphylococcus aureus [3]) [µg/mL] | Activity (Bacillus subtilis [4]) | Activity (Micrococcus luteus [5]) | Activity (Staphylococcus aureus [6]) |
| --- | --- | --- | --- | --- | --- | --- | --- | --- |
| CC1CC1C(C)CC(O)C(O)(CO)[C@H]1CC[C@H]2[C@@H]3CC[C@H]4CC(=O)CC[C@]4(C)[C@H]3C[C@@H](O)[C@]12C (stereo partly drawn) [XESTOKEROL A] | 16 (≈ 33.6 µM) | 4.4 (≈ 9.23 µM) | 2.1 (≈ 4.41 µM) | 16 (≈ 33.6 µM) | 16 (≈ 33.6 µM) | – | – | – |
| CC(CCC(C)(O)[C@H]1CC[C@H]2[C@@H]3[C@H](O)C[C@H]4CC(=O)CC[C@]4(C)[C@H]3C[C@@H](O)[C@]12C)C1CC1C (stereo partly drawn) [XESTOKEROL B] | – | 4.6 (≈ 9.98 µM) | 2.2 (≈ 4.78 µM) | – | – | inactive | inactive | inactive |
| C=C(C(=O)CC(C)C1CC1C)[C@H]1CC[C@H]2[C@@H]3CC[C@H]4CC(=O)CC[C@]4(C)[C@H]3C[C@@H](O)[C@]12C (stereo partly drawn) [XESTOKEROL C] | 66 (≈ 150 µM) | > 10 | 0.78 (≈ 1.77 µM) | – | – | – | – | – |
